Laboratory results as given in patent US20260176254A1, “INHIBITORS OF PROSTATE SPECIFIC MEMBRANE ANTIGEN AND USE THEREOF” (SHANGHAI SINOTAU BIOTECH. CO., LTD, priority 2023, published 2026).

Biological target: T1, recombinant human PSMA (rhPSMA) (Homo sapiens, UniProt Q04609)
T1 construct: purchased Sino Biological
Assay: Naaladase assay (fluorescence-based Naaladase activity inhibition)
Assay type: biochemical
Details: rhPSMA 0.4 μg/mL, substrate N-Acetyl-Asp-Glu 40 μM, 37° C. one hour
Method: Naaladase activity inhibition was determined using a fluorescence-based assay. Briefly, the solution containing the substrate N-Acetyl-Asp-Glu (Sigma-Aldrich) at 40 μM and the compound at concentrations from 0.15 nM to 1000 nM was mixed at equal volume with recombinant human PSMA (rhPSMA, Sino Biological) at 0.4 μg/mL, in assay buffer (50 mM HEPES, 100 mM NaCl, pH 7.5). The enzymatic reaction was proceeded by incubation at 37° C. for one hour and then stopped by heating at 95° C. for 5 minutes. A solution of 15 mM ortho-phthaldialdehyde (Sigma-Aldrich) was added to all vials and incubated for 10 min at ambient temperature. The reaction solutions were loaded onto a 96-well flat clear bottom black microplates (Corning) and read at excitation and emission wavelengths of 330 and 450 nm, respectively, using a microplate reader (Tecan). The data were analyzed by a one-site total binding regression algorithm of GraphPad Prism (GraphPad Software).

T1 sequence (Q04609 whole entry): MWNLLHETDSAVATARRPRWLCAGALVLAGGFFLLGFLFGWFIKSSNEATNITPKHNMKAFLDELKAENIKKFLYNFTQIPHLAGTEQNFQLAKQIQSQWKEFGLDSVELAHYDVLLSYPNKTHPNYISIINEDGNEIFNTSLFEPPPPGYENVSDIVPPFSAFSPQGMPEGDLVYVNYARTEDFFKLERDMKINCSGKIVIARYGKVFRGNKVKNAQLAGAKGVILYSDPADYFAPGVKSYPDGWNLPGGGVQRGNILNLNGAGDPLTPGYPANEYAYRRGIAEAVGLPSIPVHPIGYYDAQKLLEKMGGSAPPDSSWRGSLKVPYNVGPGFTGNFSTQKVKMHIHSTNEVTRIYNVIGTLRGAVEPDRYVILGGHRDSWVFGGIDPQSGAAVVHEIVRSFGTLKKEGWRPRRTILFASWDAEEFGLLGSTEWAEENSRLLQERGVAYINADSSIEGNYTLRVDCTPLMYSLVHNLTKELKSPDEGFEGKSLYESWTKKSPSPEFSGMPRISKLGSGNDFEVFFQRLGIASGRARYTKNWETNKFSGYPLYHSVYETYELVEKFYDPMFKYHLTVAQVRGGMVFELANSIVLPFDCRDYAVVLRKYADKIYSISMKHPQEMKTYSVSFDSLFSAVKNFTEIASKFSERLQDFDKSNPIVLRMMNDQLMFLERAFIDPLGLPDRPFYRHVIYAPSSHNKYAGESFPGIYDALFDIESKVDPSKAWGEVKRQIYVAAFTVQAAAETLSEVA

Compound	IC50
O=C(O)CCC[C@H](NC(=O)N[C@@H](CCCCNC(=O)[C@H](Cc1c2ccccc2cc2ccccc12)Nc1c(N[C@H]2CC[C@H](c3nnc(CN4CCN(CC(=O)O)CCN(CC(=O)O)CCN(CC(=O)O)CC4)o3)CC2)c(=O)c1=O)C(=O)O)C(=O)O [E11]	10 nM
NC(=O)CN1CCN(CC(=O)O)CCN(CC(=O)NC23CCC(Nc4c(N[C@@H](Cc5c6ccccc6cc6ccccc56)C(=O)NCCCC[C@H](NC(=O)N[C@@H](CNC(=O)C(=O)O)C(=O)O)C(=O)O)c(=O)c4=O)(CC2)CC3)CCN(CC(=O)O)CC1 [E16]	3.5 nM
